Patent US20150315218A1, “SALTS OF PRODRUGS OF PIPERAZINE AND SUBSTITUTED PIPERIDINE ANTIVIRAL AGENTS” (Bristol-Myers Squibb Company, priority 2004, published 2015)
Read-outs that look alike come from different tables or passages of the source.

Key:
[1] = IV and PO pharmacokinetic studies of prodrug salts (Iab, Ibb, Icb) in the monkey, with historical parent data; type: in vivo, cynomolgus monkeys; settings: monkey; for Tmax: read-out: Tmax (hr), PO
How it was run: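 Crossover IV/PO studies in three male cynomolgus monkeys per prodrug, two-week washout. Iab given as 5-min femoral-vein infusion at 1.3 mg/kg (free acid; 1.1 mg/kg IVa equivalent) and by gavage to fasted animals at 7.1 mg/kg (5.6 mg/kg IVa equivalent); serial blood sampling to 24 h.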

[2] = Single-dose oral toxicokinetic study of prodrugs in rats; type: in vivo, rat; settings: CD, rat, plasma; for concentration at 24 h / half-life / Cmax: analyte = label; for concentration at 24 h: read-out: C24 h; for half-life: read-out: T½ (converted); for AUC: read-out: AUC
How it was run: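 Male rats, three per group, received a single oral gavage dose of prodrug salt dissolved in water. Doses were 16, 72 or 267 mg/kg (Iab), 19, 64 or 236 mg/kg (Ibb), and 5, 25 or 200 mg/kg (Icb), all as free acid. Plasma toxicokinetics of prodrug and parent IVa were followed in individual animals.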

[3] = Single-dose toxicokinetic and tolerability study of prodrugs in dogs; type: in vivo, dog; settings: for half-life: read-out: T½ (converted)
How it was run: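 Female dogs (two/group) received prodrug Iab orally once daily at 24, 90 or 240 mg/kg (free acid) as aqueous solution or dry-filled capsules, one-week washouts between doses. Ibb and Icb given to one dog/sex/group as capsules, then aqueous 25 mg/kg or capsules 46 or 125 mg/kg BID. Clinical signs, body weight, food intake and plasma toxicokinetics monitored.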

[4] = IVa, Iab 24 mg/kg Solution, Dogs #1201, #1202
[5] = IVa, Iab 90 mg/kg Solution, Dogs #3201, #3202
[6] = Table 14: 90 mg/kg, Dogs #1201, #1202, 90 mg/kg
[7] = Table 14: 240 mg/kg, Dogs #2201, #2202, 240 mg/kg
[8] = female, dog, plasma, po, 24 mg/kg, IVa, Iab 24 mg/kg Dry-filled capsule, Dogs #4201, #4202
[9] = female, dog, plasma, po, 24 mg/kg, IVa, Iab 24 mg/kg Solution, Dogs #1201, #1202
[10] = female, dog, plasma, po, 90 mg/kg, IVa, Iab 90 mg/kg Solution, Dogs #3201, #3202
[11] = female, dog, plasma, po, 90 mg/kg, Table 14: 90 mg/kg, Dogs #1201, #1202
[12] = female, dog, plasma, po, 240 mg/kg, Table 14: 240 mg/kg, Dogs #2201, #2202

## COc1ncc(OC)c2c(C(=O)C(=O)N3CCN(C(=O)c4ccccc4)CC3)c[nH]c12 [IVa, N-(benzoyl)-N′-[(4,7-dimethoxy-6-azaindol-3-yl)-oxoacetyl]piperazine]
[1]; cynomolgus monkey, plasma, historical parent, IV 1 mg/kg, read-out: AUCtot (μM · hr), IV
  AUC: 9.2 ± 0.53 µM·h
[1]; cynomolgus monkey, plasma, historical parent, IV 1 mg/kg, read-out: CLtot (mL/min/kg), IV
  clearance: 4.3 ± 0.26 mL/min/kg
[1]; cynomolgus monkey, plasma, historical parent, IV 1 mg/kg, read-out: MRT (hr), IV
  MRT: 2.4 ± 0.15 h
[1]; cynomolgus monkey, plasma, historical parent, IV 1 mg/kg, read-out: Vdss (L/kg), IV
  Vd: 0.63 ± 0.39 L/kg
[1]; cynomolgus monkey, plasma, historical parent, IV 1 mg/kg, read-out: t1/2 (hr), IV (converted)
  half-life: 4.7 ± 0.31 h
[1]; cynomolgus monkey, plasma, historical parent, PO 5 mg/kg, read-out: AUCtot (μM · hr), PO
  AUC: 27 ± 2.9 µM·h
[1]; cynomolgus monkey, plasma, historical parent, PO 5 mg/kg, read-out: Bioavailability (%)
  bioavailability: 60%
[1]; cynomolgus monkey, plasma, historical parent, PO 5 mg/kg, read-out: C-24 hr (μM), PO
  concentration at 24 hr: 0.074 ± 0.032 µM
[1]; cynomolgus monkey, plasma, historical parent, PO 5 mg/kg, read-out: Cmax (μM), PO
  Cmax: 5.8 ± 1.2 µM
[1]; cynomolgus monkey, plasma, historical parent, PO 5 mg/kg
  Tmax: 2.7 h
[1]; cynomolgus monkey, plasma, historical parent, PO 5 mg/kg, read-out: t1/2 (hr), PO (converted)
  half-life: 4.2 ± 0.64 h
[1]; male, cynomolgus monkey, plasma, after IV prodrug (~1.1 mg/kg parent equivalent), analyte = label, read-out: AUCtot (μM · hr), IV
  AUC: 7.1 ± 1 µM·h
[1]; male, cynomolgus monkey, plasma, after IV prodrug, analyte = label, read-out: t1/2 (hr), IV (converted)
  half-life: 4.8 ± 1.9 h
[1]; male, cynomolgus monkey, plasma, oral prodrug, read-out: Bioavailability (%) of parent from prodrug
  bioavailability: 66%
[1]; male, cynomolgus monkey, plasma, parent after oral prodrug (~4-6 mg/kg parent equivalent)
  Tmax: 0.83 h
[1]; male, cynomolgus monkey, plasma, parent after oral prodrug, read-out: t1/2 (hr), PO (converted)
  half-life: 4.8 ± 1.3 h
[1]
  IV AUC Ratio of parent (formed from prodrug vs historical parent study): 0.70
[1]; oral prodrug vs historical parent
  PO AUC Ratio of parent: 1.1
[2]; male rats, Iab 16 mg/kg PO
  concentration at 24 h: 0.09 µM
  half-life: 3.2 h
[2]; male rats, Iab 72 mg/kg PO
  concentration at 24 h: 0.027 µM
  half-life: 2.3 h
[2]; male rats, Iab 267 mg/kg PO, AUC from zero to ∞
  AUC: 1160 µM·h
[2]; male rats, Iab 267 mg/kg PO
  concentration at 24 h: 1.9 µM
  half-life: 3.4 h
[2]; male rats, single oral dose Iab 16 mg/kg (13 mg/kg IVa molar equiv.), water
  Cmax: 26 µM
[2]; male rats, single oral dose Iab 72 mg/kg (57 IVa equiv.)
  Cmax: 104 µM
[2]; male rats, single oral dose Iab 267 mg/kg (211 IVa equiv.)
  Cmax: 214 µM
[2]; male, po, 16 mg/kg
  AUC: 67 µM·h
[2]; male, po, 72 mg/kg
  AUC: 261 µM·h
[3]; IVa in female dogs, Iab 24 mg/kg (19 IVa equiv.), Dry-filled capsule, Dogs #4201, #4202
  Cmax: 85.6 µM
[3]; IVa in female dogs, Iab 24 mg/kg (19 IVa equiv.), Solution, Dogs #1201, #1202
  Cmax: 66.5 µM
[3]; IVa in female dogs, Iab 90 mg/kg (71 IVa equiv.), Solution, Dogs #3201, #3202
  Cmax: 125 µM
[3]; IVa, Iab 24 mg/kg Dry-filled capsule, Dogs #4201, #4202
  AUC0-∞: 514 µM·h
[3]; IVa, Iab 24 mg/kg Dry-filled capsule, Dogs #4201, #4202, read-out: C24h
  concentration at 24 h: 0.87 µM
[3]; [4]
  AUC0-∞: 330 µM·h
  T½: 3.1 h
[3]; IVa, Iab 24 mg/kg Solution, Dogs #1201, #1202, read-out: C24h
  concentration at 24 h: 0.33 µM
[3]; [5]
  AUC0-∞: 838 µM·h
  T½: 3.9 h
[3]; IVa, Iab 90 mg/kg Solution, Dogs #3201, #3202, read-out: C24h
  concentration at 24 h: 2.2 µM
[3]; [6]
  AUC0-∞: 960 µM·h
  T½: 2.9 h
[3]; Table 14: 240 mg/kg (190 IVa equiv.), Formulation Solution, Dogs #2201, #2202, 240 mg/kg
  Cmax: 189 µM
[3]; [7]
  AUC0-∞: 1584 µM·h
  T½: 4.5 h
[3]; Table 14: 180 (90 BID) mg/kg (142 IVa equiv.), Dry-filled capsule, Dogs #3201, #3202
  Cmax: 248 µM
[3]; Table 14: 180 (90 BID) mg/kg, Dogs #3201 (AUC from zero to 24 h), #3202
  AUC0-∞: 2485 µM·h
[3]; Table 14: 180 (90 BID) mg/kg, Dogs #3201, #3202, read-out: C24h
  concentration at 24 h: 50 µM
[3]; Table 14: IVa in female dogs, 90 mg/kg (71 IVa equiv.), Formulation Solution, Dogs #1201, #1202, 90 mg/kg
  Cmax: 152 µM
[3]; dogs, once daily (QD) dosing of prodrug
  time post-dose at which mean Cmax of parent was achieved: 1 to 2 h
[3]; female, dog, plasma, oral, 24 mg/kg, IVa, Iab 24 mg/kg Dry-filled capsule, Dogs #4201, #4202, read-out: C24 h
  concentration at 24 h: 1.4 µM
[3]; female, dog, plasma, oral, 24 mg/kg, IVa, Iab 24 mg/kg Solution, Dogs #1201, #1202, read-out: C24 h
  concentration at 24 h: 0.61 µM
[3]; female, dog, plasma, oral, 90 mg/kg, IVa, Iab 90 mg/kg Solution, Dogs #3201, #3202, read-out: C24 h
  concentration at 24 h: 3.2 µM
[3]; female, dog, plasma, oral, Table 14: 180 (90 BID) mg/kg, Dogs #3201, #3202, read-out: C24 h
  concentration at 24 h: 34 µM
[3]; female, dog, plasma, po, 24 mg/kg, IVa in female dogs, Iab 24 mg/kg (19 IVa equiv.), Dry-filled capsule, Dogs #4201, #4202
  Cmax: 79.7 µM
[3]; female, dog, plasma, po, 24 mg/kg, IVa in female dogs, Iab 24 mg/kg (19 IVa equiv.), Solution, Dogs #1201, #1202
  Cmax: 72.3 µM
[3]; [8]
  AUC(0-inf): 486 µM·h
  half-life: 4.2 h
[3]; [9]
  AUC(0-inf): 465 µM·h
  half-life: 3.2 h
[3]; female, dog, plasma, po, 90 mg/kg, IVa in female dogs, Iab 90 mg/kg (71 IVa equiv.), Solution, Dogs #3201, #3202
  Cmax: 124 µM
[3]; [10]
  AUC(0-inf): 844 µM·h
  half-life: 4.4 h
[3]; [11]
  AUC(0-inf): 1740 µM·h
  half-life: 3.6 h
[3]; female, dog, plasma, po, 90 mg/kg, Table 14: IVa in female dogs, 90 mg/kg (71 IVa equiv.), Formulation Solution, Dogs #1201, #1202
  Cmax: 214 µM
[3]; female, dog, plasma, po, 240 mg/kg, Table 14: 240 mg/kg (190 IVa equiv.), Formulation Solution, Dogs #2201, #2202
  Cmax: 172 µM
[3]; [12]
  AUC(0-inf): 1190 µM·h
  half-life: 3.7 h
[3]; female, dog, plasma, po, Table 14: 180 (90 BID) mg/kg (142 IVa equiv.), Dry-filled capsule, Dogs #3201, #3202
  Cmax: 311 µM
[3]; female, dog, plasma, po, Table 14: 180 (90 BID) mg/kg, Dogs #3201 (AUC from zero to 24 h), #3202
  AUC(0-inf): 3300 µM·h
